Laboratory results reported in patent US7767665B2, “1,3-benzothiazinone derivatives and use thereof” (Takeda Pharmaceutical Company Limited, priority 2001, dated 2010).

For `COC(CCCNc1ccc(-c2nc(=O)c3ccccc3s2)cn1)OC` [Example 86, 2-[6-[(4,4-Dimethoxybutyl)amino]-3-pyridyl]-4H-1,3-benzothiazine-4-one], which melting point is on record?
Its melting point is 157.2 to 158.5 °C.

With `CSc1ccc(-c2nc(=O)c3ccccc3s2)cn1` [Example 171, 2-[6-(Methylthio)-3-pyridyl]-4H-1,3-benzothiazine-4-one] as the compound, how does the melting point read?
Its melting point is 167.9 to 169.9 °C.

With `O=c1nc(-c2c[nH]c3ccccc23)sc2ccccc12` [Example 172, 2-(1H-Indol-3-yl)-4H-1,3-benzothiazine-4-one] as the compound, how does the melting point read?
The melting point was 276.5 to 277 °C.

With `O=C1c2ccccc2C(=O)N1Cc1cccc(-c2nc(=O)c3ccccc3s2)n1` [Example 236, 2-[[6-(4-Oxo-4H-1,3-benzothiazin-2-yl)-2-pyridyl]methyl]-1H-isoindole-1,3(2H)-dione] as the compound, how does the melting point read?
Its melting point is 280.4 to 281.1 °C.

With `CC(C)(C)OC(=O)NCCc1ccnc(-c2nc(=O)c3ccccc3s2)c1` [Example 218, tert-Butyl 2-[2-(4-oxo-4H-1,3-benzothiazin-2-yl)-4-pyridyl]ethylcarbamate] as the compound, how does the melting point read?
The melting point was 159.8 to 161 °C.

Which melting point does the source give for `Cc1cccc2c(=O)nc(-c3cccc(C(=O)OC(C)(C)C)n3)sc12` [Example 232, tert-Butyl 6-(8-methyl-4-oxo-4H-1,3-benzothiazin-2-yl)-2-pyridinecarboxylate] here?
Its melting point is 204.3 to 204.7 °C.

For `O=C(O)COc1ccc2sc(-c3ccccn3)nc(=O)c2c1` [Example 123, 2-[[4-Oxo-2-(2-pyridyl)-4H-1,3-benzothiazin-6-yl]oxy]acetic acid], which melting point is on record?
The melting point was 250 °C (dec.).

With `Cc1cccc2c(=O)nc(-c3cccc(C(=O)NCCCCCCN)n3)sc12.Cl` as the compound, how does the melting point read?
Its melting point is 240 °C.

For `O=c1nc(-c2cccc(CCc3nnn[nH]3)n2)sc2ccccc12` [Example 305, 2-{6-[2-(1H-1,2,3,4-tetrazol-5-yl)ethyl]-2-pyridyl}-4H-1,3-benzothiazine-4-one], which melting point is on record?
The melting point was 156.6 to 157 °C.

For `CCN(CC)C(=O)c1ccc(-c2nc(=O)c3ccccc3s2)nc1` [Example 144, N,N-Diethyl-6-(4-oxo-4H-1,3-benzothiazin-2-yl)nicotinamide], which melting point is on record?
The melting point was 193.2 to 193.3 °C.

Which melting point does the source give for `CS(=O)(=O)c1cccc(-c2nc(=O)c3ccccc3s2)n1` [Example 45, 2-(6-Methylsulfonyl-2-pyridyl)-4H-1,3-benzothiazine-4-one] here?
Its melting point is 238.2 to 239.5 °C (dec.).

With `O=C(O)CCc1ccnc(-c2nc(=O)c3ccc(Cl)cc3s2)c1` [Example 185, 3-[2-(7-Chloro-4-oxo-4H-1,3-benzothiazin-2-yl)-4-pyridyl]propionic acid] as the compound, how does the melting point read?
The melting point was 262.9 to 263.5 °C.

Which melting point does the source give for `CC(C)CC[S+]([O-])c1cccc(-c2nc(=O)c3ccccc3s2)n1` (centres unmarked) [Example 157, 2-(6-Isoamylsulfinyl-2-pyridyl)-4H-1,3-benzothiazine-4-one] here?
Its melting point is 59.5 to 61 °C.

Which melting point does the source give for `Cc1cc(C)c2sc(-c3cccc(CCCOCCC(=O)OC(C)(C)C)n3)nc(=O)c2c1` [Example 87] here?
Its melting point is 105.3 to 107.3 °C.

With `Cc1ccc(-c2nc(=O)c3ccccc3s2)n1C` [Example 16, 2-(1,5-Dimethyl-1H-pyrrol-2-yl)-4H-1,3-benzothiazine-4-one] as the compound, how does the melting point read?
Its melting point is 194.3 to 195.7 °C.

Which melting point does the source give for `O=C(O)CCOCCc1cccc(-c2nc(=O)c3ccccc3s2)n1` [Example 335, 3-[2-(6-(4-Oxo-4H-1,3-benzothiazin-2-yl)-2-pyridyl)ethoxy]propionic acid] here?
Its melting point is 236.6 to 236.7 °C.

For `COC(=O)C[S+]([O-])Cc1cccc(-c2nc(=O)c3ccccc3s2)n1` (centres unmarked) [Example 259, Methyl ({[6-(4-oxo-4H-1,3-benzothiazin-2-yl)-2-pyridyl]methyl}sulfinyl)acetate], which melting point is on record?
Its melting point is 149.5 to 151 °C.

With `COc1ccc2c(=O)nc(-c3cccc(CCC(=O)O)n3)sc2c1` [Example 174, 3-[6-(7-Methoxy-4-oxo-4H-1,3-benzothiazin-2-yl)-2-pyridyl]propionic acid] as the compound, how does the melting point read?
The melting point was 234.2 to 235.2 °C.

Which melting point does the source give for `O=c1nc(-c2cccc(SCCCc3ccccc3)n2)sc2ccccc12` [Example 164, 2-[6-(3-Phenylpropylthio)-2-pyridyl]-4H-1,3-benzothiazine-4-one] here?
The melting point was 192.5 to 194 °C.

For `Cl.NCCc1ccnc(-c2nc(=O)c3ccccc3s2)c1`, which melting point is on record?
The melting point was 238 °C (dec.).

For `CN(CC(=O)OC(C)(C)C)c1nccc(-c2nc(=O)c3ccccc3s2)n1` [Example 293, tert-Butyl {methyl [6-(4-oxo-4H-1,3-benzothiazin-2-yl)-2-pyrimidinyl]amino}acetate], which melting point is on record?
The melting point was 186.5 to 188 °C.

For `O=c1nc(-c2cnc3ccccc3c2)sc2ccccc12` [Example 4, 2-(3-Quinolinyl)-4H-1,3-benzothiazine-4-one], which melting point is on record?
Its melting point is 216 to 217 °C.

With `CCCCOc1ccc2sc(-c3ccccn3)nc(=O)c2c1` [Example 116, 6-Butoxy-2-(2-pyridyl)-4H-1,3-benzothiazine-4-one] as the compound, how does the melting point read?
Its melting point is 160.9 to 161.8 °C.

Which melting point does the source give for `O=C(O)CCCCCCc1cccc(-c2nc(=O)c3ccccc3s2)n1` [Example 307, 7-[6-(4-Oxo-4H-1,3-benzothiazin-2-yl)-2-pyridyl]heptanoic acid] here?
Its melting point is 148.6 to 150.6 °C.

With `O=C(c1ccc2c(=O)nc(-c3ccccn3)sc2c1)N1CCOCC1` [Example 240, 7-(4-Morpholinocarbonyl)-2-(2-pyridyl)-4H-1,3-benzothiazine-4-one] as the compound, how does the melting point read?
Its melting point is 217.6 to 218.8 °C.

With `O=C(O)CCc1ccnc(-c2nc(=O)c3ccc(Br)cc3s2)c1` [Example 188, 3-[2-(7-Bromo-4-oxo-4H-1,3-benzothiazin-2-yl)-4-pyridyl]propionic acid] as the compound, how does the melting point read?
The melting point was 257.5 to 259.1 °C.

For `CN(C)CCSc1cncc(-c2nc(=O)c3ccccc3s2)n1` [Example 297], which melting point is on record?
The melting point was 160.5 °C (dec.).

Which melting point does the source give for `CC(C)(C)OC(=O)CCc1cccc(-c2nc(=O)c3ccccc3s2)n1` [Example 78, tert-Butyl 3-[6-(4-oxo-4H-1,3-benzothiazin-2-yl)-2-pyridyl]propanoate] here?
Its melting point is 165.8 to 166 °C.

Which melting point does the source give for `CC(C)COc1ccc2sc(-c3ccccn3)nc(=O)c2c1` [Example 117, 6-Isobutoxy-2-(2-pyridyl)-4H-1,3-benzothiazine-4-one] here?
Its melting point is 135.5 to 136.5 °C.

Which melting point does the source give for `CN(CC(=O)O)c1nccc(-c2nc(=O)c3ccccc3s2)n1` [Example 294, {Methyl [6-(4-oxo-4H-1,3-benzothiazin-2-yl)-2-pyrimidinyl]amino}acetic acid] here?
Its melting point is 215 °C (dec.).

With `CC(C)(C)OC(=O)NCCc1ccnc(-c2nc(=O)c3ccc(Cl)cc3s2)c1` [Example 219, tert-Butyl 2-[2-(7-chloro-4-oxo-4H-1,3-benzothiazin-2-yl)-4-pyridyl]ethylcarbamate] as the compound, how does the melting point read?
Its melting point is 168.2 to 169.2 °C.

Which melting point does the source give for `CC(=O)N1CCCC1c1ccnc(-c2nc(=O)c3ccccc3s2)c1` (centres unmarked) [Example 351, 2-[4-(1-Acetyl-2-pyrrolidinyl)-2-pyridyl]-4H-1,3-benzothiazine-4-one] here?
Its melting point is 206.2 to 207.4 °C.

With `CC(C)(C)OC(=O)CNc1nccc(-c2nc(=O)c3ccccc3s2)n1` [Example 295, tert-Butyl {[6-(4-oxo-4H-1,3-benzothiazin-2-yl)-2-pyrimidinyl]amino}acetate] as the compound, how does the melting point read?
Its melting point is 247 to 248 °C.

With `Cc1cc(CCC(=O)OC(C)(C)C)nc(-c2nc(=O)c3ccccc3s2)c1` [Example 189, tert-Butyl 3-[4-methyl-6-(4-oxo-4H-1,3-benzothiazin-2-yl)-2-pyridyl]propanoate] as the compound, how does the melting point read?
The melting point was 168.5 to 169.3 °C.

For `O=c1nc(-c2cccc(CS(=O)(=O)Cc3ccccc3)n2)sc2ccccc12` [Example 257, 2-[6-[(Benzylsulfonyl)methyl]-2-pyridyl]-4H-1,3-benzothiazine-4-one], which melting point is on record?
Its melting point is 246 to 248 °C.

With `O=c1nc(-c2ccc(NCc3ccccc3)nc2)sc2ccccc12` [Example 32, 2-[6-(Benzylamino)-3-pyridyl]-4H-1,3-benzothiazine-4-one] as the compound, how does the melting point read?
The melting point was 194.3 to 196.2 °C.

Which melting point does the source give for `O=C(O)/C=C/c1cccc(-c2nc(=O)c3ccccc3s2)n1` [Example 148, (E)-3-[6-(4-oxo-4H-1,3-benzothiazin-2-yl)-2-pyridyl]-2-prop enoic acid] here?
The melting point was 115.6 to 115.7 °C.

For `O=c1nc(-c2ccccn2)sc2ccc(Br)cc12` [Example 11, 6-Bromo-2-(2-pyridyl)-4H-1,3-benzothiazine-4-one], which melting point is on record?
Its melting point is 253 to 253.7 °C.

With `CN(C)c1cncc(-c2nc(=O)c3ccccc3s2)n1` [Example 290, 2-[6-(Dimethylamino)-2-pyrazinyl]-4H-1-benzothiazine-4-one] as the compound, how does the melting point read?
The melting point was 248 to 249 °C.

Which melting point does the source give for `Cn1ccnc1Sc1cccc(-c2nc(=O)c3ccccc3s2)n1` [Example 271, 2-{6-[(1-Methyl-1H-imidazol-2-yl)thio]-2-pyridyl}-4H-1,3-benzothiazine-4-one] here?
Its melting point is 171.9 to 172.3 °C.

For `CC(C)S(=O)(=O)c1cccc(-c2nc(=O)c3ccccc3s2)n1` [Example 152, 2-[6-(Isopropylsulfonyl)-2-pyridyl]-4H-1,3-benzothiazine-4-one], which melting point is on record?
Its melting point is 205 to 206 °C.

With `CS(=O)(=O)Cc1cccc(-c2nc(=O)c3ccccc3s2)n1` [Example 169, 2-(6-Methylsulfonylmethyl-2-pyridyl)-4H-1,3-benzothiazine-4-one] as the compound, how does the melting point read?
The melting point was 230.5 to 231.5 °C.

Which melting point does the source give for `CS(=O)(=O)c1cc(-c2nc(=O)c3ccccc3s2)ccn1` [Example 264, 2-[2-(Methylsulfonyl)-4-pyridyl]-4H-1,3-benzothiazine-4-one] here?
Its melting point is 189.5 to 191.5 °C.

For `CC(=O)c1ccc(-c2nc(=O)c3ccccc3s2)nc1` [Example 145, 2-(5-Acetyl-2-pyridyl)-4H-1,3-benzothiazine-4-one], which melting point is on record?
The melting point was 276.3 to 276.7 °C.

With `O=c1nc(-c2cc(CCc3nnn[nH]3)ccn2)sc2ccccc12` [Example 316, 2-{4-[2-(1H-1,2,3,4-Tetrazol-5-yl)ethyl]-2-pyridyl}-4H-1,3-benzothiazine-4-one] as the compound, how does the melting point read?
Its melting point is 250 °C (dec.).

With `CC(C)(C)OC(=O)CCc1ccnc(-c2nc(=O)c3ccc(Br)cc3s2)c1` [Example 187, tert-Butyl 3-[2-(7-bromo-4-oxo-4H-1,3-benzothiazin-2-yl)-4-pyridyl]propanoate] as the compound, how does the melting point read?
The melting point was 172.9 to 173.7 °C.

Which melting point does the source give for `O=c1nc(-c2cccc(-c3ccccc3)n2)sc2ccccc12` [Example 197, 2-(6-Phenyl-2-pyridyl)-4H-1,3-benzothiazine-4-one] here?
The melting point was 195.4 to 197 °C.
